System: rabbit model of arterial thrombosis
Experiment: Electrically induced carotid artery thrombosis in rabbits, carotid blood flow over 90 min
Type: in vivo
Experimental: Rabbits were anesthetized with ketamine (50 mg/kg i.m.) and xylazine (10 mg/kg i.m.) and then surgically prepared with arterial and venous catheters. An electromagnetic flow probe was placed on a segment of an isolated carotid artery to monitor blood flow. Thrombus formation was induced by electrical stimulation of the carotid artery for 3 min at 4 mA using an external stainless-steel bipolar electrode. Carotid blood flow was measured continuously over a 90-min period to monitor thrombus occlusion. Test agents were infused intravenously 1 hour prior to the electrical stimulation of the carotid artery and continuously during the 90-min period.

[1] = Factor Xa inhibitor alone 0.1 mg/kg/hr i.v. infusion

Structure (SMILES)	prevention of occlusion of the carotid artery [1]	also measured
CS(=O)(=O)c1ccccc1-c1ccc(NC(=O)c2cc(C(F)(F)F)nn2-c2cccc(CN)c2)c(F)c1.O=C(O)C(F)(F)F [Compound (1)]	did not prevent the occlusion of the artery	–
CS(=O)(=O)O.Cc1noc(C)c1S(=O)(=O)N[C@@H](CNC(=O)C[C@H]1CC(c2ccc(C(=N)N)cc2)=NO1)C(=O)O [Compound (4)]	–	prevention of occlusion of the carotid artery (Compound (4) alone 0.03 mg/kg/hr i.v.): did not prevent the occlusion of the artery
CC(=O)Oc1ccccc1C(=O)O [Aspirin]	–	prevention of occlusion of the carotid artery (aspirin alone 1 mg/kg/hr i.v. infusion from 1 hour before stimulation and during 90 min): did not prevent the occlusion of the artery
NCc1cccc(-n2nc(C(F)(F)F)cc2C(=O)Nc2ccc(-c3ccccc3S(N)(=O)=O)cc2)c1.O=C(O)C(F)(F)F [Compound (3)]	did not prevent the occlusion of the artery	–
